Legend:
Axl = biological target: T1, Axl (Homo sapiens, UniProt P30530); experiment: LanthaScreen Eu kinase binding assay, Axl; details: Tracer 236
T1 construct: purchased Life Technologies
T1 sequence (P30530 26-894): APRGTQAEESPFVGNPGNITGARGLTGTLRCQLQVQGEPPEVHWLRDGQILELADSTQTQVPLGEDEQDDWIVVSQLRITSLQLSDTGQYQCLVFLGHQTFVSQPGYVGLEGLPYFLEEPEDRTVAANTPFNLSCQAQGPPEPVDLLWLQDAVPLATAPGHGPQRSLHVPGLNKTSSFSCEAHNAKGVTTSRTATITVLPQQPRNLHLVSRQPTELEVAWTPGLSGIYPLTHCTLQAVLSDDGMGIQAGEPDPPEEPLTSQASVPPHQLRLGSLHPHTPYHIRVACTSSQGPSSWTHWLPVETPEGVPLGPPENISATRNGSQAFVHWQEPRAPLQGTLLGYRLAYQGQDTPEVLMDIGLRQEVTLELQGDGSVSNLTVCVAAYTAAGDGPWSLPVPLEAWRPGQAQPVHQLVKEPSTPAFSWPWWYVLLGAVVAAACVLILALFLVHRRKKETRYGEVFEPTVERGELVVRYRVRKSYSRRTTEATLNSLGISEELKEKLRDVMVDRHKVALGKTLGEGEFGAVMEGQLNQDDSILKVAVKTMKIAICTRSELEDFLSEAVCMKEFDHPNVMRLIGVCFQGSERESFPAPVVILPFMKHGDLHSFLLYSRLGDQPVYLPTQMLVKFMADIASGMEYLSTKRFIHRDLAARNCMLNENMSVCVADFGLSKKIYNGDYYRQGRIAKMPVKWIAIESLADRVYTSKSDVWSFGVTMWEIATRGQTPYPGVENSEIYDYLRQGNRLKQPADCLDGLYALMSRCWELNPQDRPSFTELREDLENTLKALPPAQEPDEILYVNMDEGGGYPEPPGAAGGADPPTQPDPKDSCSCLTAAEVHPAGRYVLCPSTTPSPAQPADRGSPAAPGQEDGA
Experimental: (§1) LanthaScreen® Eu Kinase Binding assays were conducted at Life Technologies using the manufacturer's specifications for each kinase indicated.
(§2) Briefly, the principle behind this assay is based upon the binding and displacement of an Alexa Fluor 647-labeled tracer to the kinase of interest. Binding of the tracer to the kinase is detected using an EU-labeled anti-tag antibody. Simultaneous binding of both the tracer and antibody to the kinase gives rise to a FRET-signal. Binding of an inhibitor to the kinase competes for binding with the tracer, resulting in a loss of FRET-signal.
(§3) Binding Assay Protocol for AXL, Mer, Tyro3 and Met
(§4) A given compound was diluted in DMSO to make a stock compound solution. The stock compound solution was serially diluted over eight steps in DMSO. Each diluted compound solution in DMSO was diluted in kinase buffer. Afterwards four kinds of working solution were prepared. First, Tracer-Working solution consists of Tracer 236 and Kinase Buffer. Second, Axl, Mer, Tyro3 or Met/anti-GST-AB-Working solution contained one of the kinases Axl, Mer, Tyro3, Met or anti-GST-AB (=anti glutathione-S-transferase antibody) in Kinase Buffer. Third, anti-GST-AB-Working solution was made with anti-GST-AB and Kinase Buffer. Last, in the DMSO-Working solution DMSO was added to Kinase Buffer to a final concentration to 3%. Each of the four kinds of working solutions were separately added to the assay plate and then incubated for 1 h at room temperature. After incubation, the assay plate was measured with respect to the FRET-Signal with the EnVision (Perkin Elmer) using the program LanthaHTRF-Assay. Data evaluation was done in the Quattro Workflow software.
(§5) Table 1 summarises the results obtained for AXL, Mer and Tyro3-kinases binding assays; table 2 summarises the results obtained for the Met kinase binding assay.

TYRO3 = biological target: T2, TYRO3 (Homo sapiens, UniProt Q06418); experiment: LanthaScreen Eu kinase binding assay, TYRO3; details: Tracer 236
T2 construct: purchased Life Technologies
T2 sequence (Q06418 41-890): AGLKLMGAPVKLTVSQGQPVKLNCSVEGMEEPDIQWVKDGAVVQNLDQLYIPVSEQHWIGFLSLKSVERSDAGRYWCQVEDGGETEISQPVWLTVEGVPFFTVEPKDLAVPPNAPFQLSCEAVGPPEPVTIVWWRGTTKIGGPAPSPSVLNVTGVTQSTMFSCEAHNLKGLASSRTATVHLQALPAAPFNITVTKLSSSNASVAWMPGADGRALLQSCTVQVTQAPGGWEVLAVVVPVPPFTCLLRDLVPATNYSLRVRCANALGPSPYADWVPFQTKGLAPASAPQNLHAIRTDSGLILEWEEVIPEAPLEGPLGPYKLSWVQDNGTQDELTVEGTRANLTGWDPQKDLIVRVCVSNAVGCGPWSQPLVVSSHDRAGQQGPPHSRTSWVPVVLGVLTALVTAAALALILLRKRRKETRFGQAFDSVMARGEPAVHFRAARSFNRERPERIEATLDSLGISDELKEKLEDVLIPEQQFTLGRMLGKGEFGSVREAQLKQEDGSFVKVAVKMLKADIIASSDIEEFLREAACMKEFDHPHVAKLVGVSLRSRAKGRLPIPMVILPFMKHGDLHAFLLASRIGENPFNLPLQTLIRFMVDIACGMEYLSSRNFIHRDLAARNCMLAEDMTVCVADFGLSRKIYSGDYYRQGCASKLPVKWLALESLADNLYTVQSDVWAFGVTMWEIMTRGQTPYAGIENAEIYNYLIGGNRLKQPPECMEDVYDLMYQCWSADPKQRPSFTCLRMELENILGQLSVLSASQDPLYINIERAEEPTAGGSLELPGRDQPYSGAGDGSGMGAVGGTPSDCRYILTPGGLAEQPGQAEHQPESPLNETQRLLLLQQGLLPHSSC
Experimental: as §1, §2, §3, §4, §5

Met = biological target: T3, Met (Homo sapiens, UniProt P08581); experiment: LanthaScreen Eu kinase binding assay, Met; details: Tracer 236, read-out: cMet kinase binding activity (Kd)
T3 construct: purchased Life Technologies
Experimental: as §1, §2, §3, §4, §5

Mer = biological target: T4, Mer (Homo sapiens, UniProt Q12866); experiment: LanthaScreen Eu kinase binding assay, Mer; details: Tracer 236
T4 construct: purchased Life Technologies
T4 sequence (Q12866 21-999): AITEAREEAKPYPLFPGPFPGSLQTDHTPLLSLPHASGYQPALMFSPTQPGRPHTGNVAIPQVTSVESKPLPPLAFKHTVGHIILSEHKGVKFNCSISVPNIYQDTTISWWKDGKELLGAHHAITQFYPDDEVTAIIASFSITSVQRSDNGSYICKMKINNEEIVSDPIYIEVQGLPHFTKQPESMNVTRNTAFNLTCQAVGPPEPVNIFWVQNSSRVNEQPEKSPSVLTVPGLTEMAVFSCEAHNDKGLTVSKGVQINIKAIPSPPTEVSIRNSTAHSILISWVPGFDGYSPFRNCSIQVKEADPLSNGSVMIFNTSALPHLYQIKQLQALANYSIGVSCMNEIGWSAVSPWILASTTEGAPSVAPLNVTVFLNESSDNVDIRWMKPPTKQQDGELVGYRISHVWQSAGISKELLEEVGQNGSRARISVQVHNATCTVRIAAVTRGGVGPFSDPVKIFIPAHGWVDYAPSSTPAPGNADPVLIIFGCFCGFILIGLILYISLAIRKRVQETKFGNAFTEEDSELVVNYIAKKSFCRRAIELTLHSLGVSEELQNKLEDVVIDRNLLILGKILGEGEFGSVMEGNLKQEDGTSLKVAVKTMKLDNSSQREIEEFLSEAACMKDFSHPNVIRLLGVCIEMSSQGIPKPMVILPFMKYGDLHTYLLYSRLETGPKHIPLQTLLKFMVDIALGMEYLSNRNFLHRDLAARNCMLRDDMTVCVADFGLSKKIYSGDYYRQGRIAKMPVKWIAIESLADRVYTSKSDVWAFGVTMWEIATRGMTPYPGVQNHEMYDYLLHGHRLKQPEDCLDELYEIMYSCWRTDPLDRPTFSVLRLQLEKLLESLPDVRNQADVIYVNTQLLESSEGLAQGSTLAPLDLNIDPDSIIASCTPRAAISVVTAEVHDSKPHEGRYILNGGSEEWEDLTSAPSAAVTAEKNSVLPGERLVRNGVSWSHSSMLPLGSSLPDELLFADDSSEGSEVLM
Experimental: as §1, §2, §3, §4, §5

T3 sequence (P08581 25-1390): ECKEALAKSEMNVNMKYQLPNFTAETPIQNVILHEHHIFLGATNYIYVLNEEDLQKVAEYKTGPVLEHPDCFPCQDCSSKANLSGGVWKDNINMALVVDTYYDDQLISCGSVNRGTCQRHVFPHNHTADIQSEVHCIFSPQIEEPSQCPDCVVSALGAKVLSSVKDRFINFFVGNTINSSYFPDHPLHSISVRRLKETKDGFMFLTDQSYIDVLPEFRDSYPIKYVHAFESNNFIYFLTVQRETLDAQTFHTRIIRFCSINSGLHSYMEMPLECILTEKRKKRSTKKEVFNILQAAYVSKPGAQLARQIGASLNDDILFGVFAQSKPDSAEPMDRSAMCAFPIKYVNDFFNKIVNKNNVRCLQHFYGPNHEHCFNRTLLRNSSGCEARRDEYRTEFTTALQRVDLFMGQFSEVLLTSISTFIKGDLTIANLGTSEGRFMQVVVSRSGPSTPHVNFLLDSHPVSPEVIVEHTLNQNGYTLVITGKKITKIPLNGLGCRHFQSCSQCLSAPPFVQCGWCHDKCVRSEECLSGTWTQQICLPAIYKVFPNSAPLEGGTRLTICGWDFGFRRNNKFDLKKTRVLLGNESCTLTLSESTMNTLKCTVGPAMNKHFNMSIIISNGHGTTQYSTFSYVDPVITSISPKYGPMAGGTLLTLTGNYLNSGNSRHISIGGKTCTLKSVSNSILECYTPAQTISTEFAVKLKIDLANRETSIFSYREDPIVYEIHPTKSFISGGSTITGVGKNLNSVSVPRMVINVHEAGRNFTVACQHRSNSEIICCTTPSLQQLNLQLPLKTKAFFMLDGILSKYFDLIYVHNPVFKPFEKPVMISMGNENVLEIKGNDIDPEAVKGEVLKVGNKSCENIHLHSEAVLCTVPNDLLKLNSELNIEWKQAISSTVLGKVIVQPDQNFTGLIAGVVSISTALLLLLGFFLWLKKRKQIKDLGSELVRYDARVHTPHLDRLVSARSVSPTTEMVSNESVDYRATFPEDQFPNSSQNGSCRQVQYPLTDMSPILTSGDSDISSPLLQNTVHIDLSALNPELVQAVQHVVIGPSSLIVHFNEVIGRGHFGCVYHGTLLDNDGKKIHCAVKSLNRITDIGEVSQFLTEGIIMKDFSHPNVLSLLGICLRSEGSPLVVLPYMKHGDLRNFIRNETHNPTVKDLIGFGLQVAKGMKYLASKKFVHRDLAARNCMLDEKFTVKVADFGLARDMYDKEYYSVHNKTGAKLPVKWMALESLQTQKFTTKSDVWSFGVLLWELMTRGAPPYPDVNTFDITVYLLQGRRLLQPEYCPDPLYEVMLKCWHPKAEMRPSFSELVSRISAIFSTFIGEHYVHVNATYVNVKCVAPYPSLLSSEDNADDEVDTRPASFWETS

Row | SMILES | Kd (Axl) [nM] | Kd (TYRO3) [nM] | Kd (Met) [nM] | Kd (Mer) [nM]
1 | CCOc1cn(-c2cnc(N)cn2)nc1C(=O)Nc1ccc(Oc2ccnc3cc(OC)c(OC)cc23)cn1 [Compound 136] | < 100 | < 100 | < 100 | < 100
2 | CCOc1cn(CCN(C)C)nc1C(=O)Nc1ccc(Oc2ccnc3cc(OC)c(OC)cc23)cn1 [Compound 49] | 100 to 1000 | 100 to 1000 | 100 to 1000 | < 100
3 | CCOc1cn(-c2cnc(C(F)(F)F)cn2)nc1C(=O)Nc1ccc(Oc2ccnc3cc(OC)c(OC)cc23)cn1 [Compound 159] | ≥ 1000 | ≥ 1000 | ≥ 1000 | ≥ 1000
4 | CCOc1cn(-c2ccc(C#N)nc2)nc1C(=O)Nc1ccc(Oc2ccnc3cc(OC)c(OC)cc23)cn1 [Compound 50] | 100 to 1000 | ≥ 1000 | ≥ 1000 | ≥ 1000
5 | CCOc1cn(-c2cnc(N)cc2C)nc1C(=O)Nc1ccc(Oc2ccnc3cc(OC)c(OC)cc23)cn1 [Compound 137] | < 100 | 100 to 1000 | < 100 | < 100
6 | CCOc1cn(-c2ccc(NC(C)C)cc2Cl)nc1C(=O)Nc1ccc(Oc2ccnc3cc(OC)c(OC)cc23)cn1 [Compound 24] | 100 to 1000 | ≥ 1000 | 100 to 1000 | < 100
7 | CCOc1cnn(C2CCOC2)c1C(=O)Nc1ccc(Oc2ccnc3cc(OC)c(OC)cc23)cn1 (stereo not shown) [Compound 77] | 100 to 1000 | 100 to 1000 | 100 to 1000 | < 100
8 | CCOc1cn(-c2cncc(C(F)(F)F)n2)nc1C(=O)Nc1ccc(Oc2ccnc3cc(OC)c(OC)cc23)cn1 [Compound 164] | 100 to 1000 | ≥ 1000 | 100 to 1000 | < 100
9 | CCOc1cn(-c2cccnc2)nc1C(=O)Nc1ncc(Oc2ccnc3cc(OC)c(OC)cc23)cc1F [Compound 154] | < 100 | ≥ 1000 | ≥ 1000 | < 100
10 | CCOc1cn(-c2ccc(F)cc2C)nc1C(=O)Nc1ccc(Oc2ccnc3cc(OC)c(OC)cc23)cc1CO [Compound 119] | 100 to 1000 | 100 to 1000 | 100 to 1000 | 100 to 1000
11 | CCOc1cn(-c2cccnc2)nc1C(=O)Nc1ncc(Oc2ccnc3cc(OC)c(OC)cc23)cn1 [Compound 47] | 100 to 1000 | ≥ 1000 | ≥ 1000 | 100 to 1000
12 | CCOc1cn(-c2ncc(Cl)cc2CN(C)C)nc1C(=O)Nc1ccc(Oc2ccnc3cc(OC)c(OC)cc23)cn1 [Compound 138] | 100 to 1000 | 100 to 1000 | < 100 | < 100
13 | CCOc1cn(Cc2cccnc2)nc1C(=O)Nc1ccc(Oc2ccnc3cc(OC)c(OC)cc23)cn1 [Compound 83] | < 100 | 100 to 1000 | < 100 | < 100
14 | CCOc1cn(-c2ncccc2CN(C)C)nc1C(=O)Nc1ccc(Oc2ccnc3cc(OC)c(OC)cc23)cn1 [Compound 142] | 100 to 1000 | 100 to 1000 | < 100 | < 100
15 | CCOc1cnn(CC2CCO2)c1C(=O)Nc1ccc(Oc2ccnc3cc(OC)c(OC)cc23)cn1 (stereo not shown) [Compound 51] | 100 to 1000 | ≥ 1000 | 100 to 1000 | 100 to 1000

The next lines start with the values.

Row | Kd (Axl) [nM] | Kd (TYRO3) [nM] | Kd (Met) [nM] | Kd (Mer) [nM] | SMILES
16 | < 100 | < 100 | < 100 | < 100 | CCOc1cn(-c2nccnc2F)nc1C(=O)Nc1ccc(Oc2ccnc3cc(OC)c(OC)cc23)cn1 [Compound 178]
17 | 100 to 1000 | ≥ 1000 | ≥ 1000 | 100 to 1000 | CCOc1cn(C2CCN(C)CC2)nc1C(=O)Nc1ccc(Oc2ccnc3cc(OC)c(OC)cc23)cc1F [Compound 222]
18 | < 100 | < 100 | < 100 | < 100 | CCOc1cn(-c2cncnc2C(C)C)nc1C(=O)Nc1ccc(Oc2ccnc3cc(OC)c(OC)cc23)cn1 [Compound 166]
19 | ≥ 1000 | ≥ 1000 | 100 to 1000 | 100 to 1000 | CCOc1cnn(Cc2cnccn2)c1C(=O)Nc1ccc(Oc2ccnc3cc(OC)c(OC)cc23)cc1F [Compound 217]
20 | < 100 | 100 to 1000 | < 100 | < 100 | CCOc1cn(-c2cnc(F)cn2)nc1C(=O)Nc1ccc(Oc2ccnc3cc(OC)c(OC)cc23)cn1 [Compound 171]
21 | ≥ 1000 | ≥ 1000 | 100 to 1000 | 100 to 1000 | CCOc1cnn(Cc2cnccc2C)c1C(=O)Nc1ccc(Oc2ccnc3cc(OC)c(OC)cc23)cc1F [Compound 228]
22 | < 100 | < 100 | < 100 | < 100 | CCOc1cn(-c2cncnc2OC)nc1C(=O)Nc1ccc(Oc2ccnc3cc(OC)c(OC)cc23)cn1 [Compound 175]

From patent US10934274B2, “Quinoline derivatives as TAM RTK inhibitors” (Qurient Co., Ltd., priority 2015, dated 2021)
